Assay results reported in paper PMC10268488, “Indole-carbohydrazide linked phenoxy-1,2,3-triazole-N-phenylacetamide derivatives as potent α-glucosidase inhibitors: design, synthesis, in vitro α-glucosidase inhibition, and computational studies” (BMC Chemistry, 2023).
Like-named read-outs stand apart in the source and are kept apart here.

Experiments:
yeast α-glucosidase [1] = biological target: T1, yeast α-glucosidase (Saccharomyces cerevisiae, UniProt P53341); assay: biochemical; format: biochemical; conditions: for diminished inhibitory activity relative to compound 11d: replacement of methoxy substituent of 11d
T1 sequence (P53341 whole entry): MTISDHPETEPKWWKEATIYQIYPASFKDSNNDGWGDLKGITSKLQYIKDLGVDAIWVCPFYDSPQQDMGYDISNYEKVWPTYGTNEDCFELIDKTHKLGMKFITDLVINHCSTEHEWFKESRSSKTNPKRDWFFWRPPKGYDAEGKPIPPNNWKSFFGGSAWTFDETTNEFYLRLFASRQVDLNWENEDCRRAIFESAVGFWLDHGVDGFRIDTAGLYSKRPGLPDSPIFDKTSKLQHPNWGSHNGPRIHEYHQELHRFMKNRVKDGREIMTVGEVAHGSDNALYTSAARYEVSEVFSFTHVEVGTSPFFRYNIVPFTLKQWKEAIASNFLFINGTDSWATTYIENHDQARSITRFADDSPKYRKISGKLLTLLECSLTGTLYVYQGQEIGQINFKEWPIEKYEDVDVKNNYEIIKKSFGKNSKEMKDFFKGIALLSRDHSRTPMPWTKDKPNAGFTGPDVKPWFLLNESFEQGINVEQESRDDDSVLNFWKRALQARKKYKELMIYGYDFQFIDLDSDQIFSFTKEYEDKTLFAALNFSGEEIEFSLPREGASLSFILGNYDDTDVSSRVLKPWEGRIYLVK

yeast α-glucosidase [2] = biological target: T1, yeast α-glucosidase; assay: Kinetic study of α-glucosidase inhibition (Lineweaver–Burk plots); format: biochemical; conditions: for mechanism of α-glucosidase inhibition: Lineweaver–Burk plots, both Vmax and Km decreased; for Ki: Lineweaver–Burk secondary plot, substrate p-nitrophenyl-glucopyranoside 1–4 mM
Source text: Then, the Lineweaver-Burke plots were depicted using by the reciprocal of velocity and substrate concentration (Fig. 5).

[3] = tested on: normal human dermal fibroblast (HDF) cell line; assay: In vitro cytotoxicity assay; format: cell-based; conditions: HDF cells, 50 μM concentration
Description: To assess of the cytotoxic effects of the new synthesized compounds, cytotoxicity of compounds 11d and 11n as the representative compounds was evaluated against the normal human dermal fibroblast (HDF) cell line.
Evaluation of cytotoxic effects of the synthesized compounds 11d and 11n was performed exactly based on our previous report.

[4] = read-out: IC50 (anti-α-glucosidase activity)

Compound	melting point [°C]	IC50 (yeast α-glucosidase [1]; [4]) [µM]	IC50 (yeast α-glucosidase [1]) [µM]	other results
O=C(Cn1cc(COc2ccc(/C=N/NC(=O)c3cc4ccccc4[nH]3)cc2)nn1)Nc1ccccc1 [Compound 11a, (E)-2-(4-((4-((2-(1H-indole-2-carbonyl)hydrazono)methyl)phenoxy)methyl)-1H-1,2,3-triazol-1-yl)-N-phenylacetamide]	194 to 196	15.2 ± 0.18	–	–
Cc1ccccc1NC(=O)Cn1cc(COc2ccc(/C=N/NC(=O)c3cc4ccccc4[nH]3)cc2)nn1 [Compound 11b, (E)-2-(4-((4-((2-(1H-indole-2-carbonyl)hydrazono)methyl)phenoxy)methyl)-1H-1,2,3-triazol-1-yl)-N-(o-tolyl)acetamide]	–	8.88 ± 0.07	–	mechanism of α-glucosidase inhibition (yeast α-glucosidase [2]): uncompetitive inhibitors; Ki (yeast α-glucosidase [2]): 8.5 µM
Cc1ccc(NC(=O)Cn2cc(COc3ccc(/C=N/NC(=O)c4cc5ccccc5[nH]4)cc3)nn2)cc1 [Compound 11c, (E)-2-(4-((4-((2-(1H-indole-2-carbonyl)hydrazono)methyl)phenoxy)methyl)-1H-1,2,3-triazol-1-yl)-N-(p-tolyl)acetamide]	–	19.12 ± 0.08	–	diminished inhibitory activity relative to compound 11d (yeast α-glucosidase [1]): 3 folds
COc1ccc(NC(=O)Cn2cc(COc3ccc(/C=N/NC(=O)c4cc5ccccc5[nH]4)cc3)nn2)cc1 [Compound 11d, (E)-2-(4-((4-((2-(1H-indole-2-carbonyl)hydrazono)methyl)phenoxy)methyl)-1H-1,2,3-triazol-1-yl)-N-(4-methoxyphenyl)acetamide]	–	6.31 ± 0.03	–	times more potent than acarbose (yeast α-glucosidase [1]; ratio of IC50 values vs acarbose): 118.8 times; mechanism of α-glucosidase inhibition (yeast α-glucosidase [2]): uncompetitive inhibitors; Ki (yeast α-glucosidase [2]): 6.3 µM; cytotoxicity on normal cell line [3]: non-cytotoxic
O=C(Cn1cc(COc2ccc(/C=N/NC(=O)c3cc4ccccc4[nH]3)cc2)nn1)Nc1ccccc1Cl [Compound 11e, (E)-2-(4-((4-((2-(1H-indole-2-carbonyl)hydrazono)methyl)phenoxy)methyl)-1H-1,2,3-triazol-1-yl)-N-(2-chlorophenyl)acetamide]	> 250	–	26.97 ± 0.25	–
O=C(Cn1cc(COc2ccc(/C=N/NC(=O)c3cc4ccccc4[nH]3)cc2)nn1)Nc1ccc(Cl)cc1 [Compound 11f, (E)-2-(4-((4-((2-(1H-indole-2-carbonyl)hydrazono)methyl)phenoxy)methyl)-1H-1,2,3-triazol-1-yl)-N-(4-chlorophenyl)acetamide]	174 to 176	9.53 ± 0.12	–	diminished inhibitory activity relative to compound 11d (yeast α-glucosidase [1]): 1.5 folds
O=C(Cn1cc(COc2ccc(/C=N/NC(=O)c3cc4ccccc4[nH]3)cc2)nn1)Nc1ccc(Br)cc1 [Compound 11g, (E)-2-(4-((4-((2-(1H-indole-2-carbonyl)hydrazono)methyl)phenoxy)methyl)-1H-1,2,3-triazol-1-yl)-N-(4-bromophenyl)acetamide]	–	49.89 ± 0.09	–	diminished inhibitory activity relative to compound 11d (yeast α-glucosidase [1]): 8 folds
Cc1cc(NC(=O)Cn2cc(COc3ccc(/C=N/NC(=O)c4cc5ccccc5[nH]4)cc3)nn2)ccc1[N+](=O)[O-] [Compound 11h, (E)-2-(4-((4-((2-(1H-indole-2-carbonyl)hydrazono)methyl)phenoxy)methyl)-1H-1,2,3-triazol-1-yl)-N-(3-methyl-4-nitrophenyl)acetamide]	200 to 202	–	35.11 ± 0.07	–
COc1cc(/C=N/NC(=O)c2cc3ccccc3[nH]2)ccc1OCc1cn(CC(=O)Nc2ccccc2)nn1 [Compound 11i, (E)-2-(4-((4-((2-(1H-indole-2-carbonyl)hydrazono)methyl)-2-methoxyphenoxy)methyl)-1H-1,2,3-triazol-1-yl)-N-phenylacetamide]	–	–	11.3 ± 0.15	–
COc1ccc(NC(=O)Cn2cc(COc3ccc(/C=N/NC(=O)c4cc5ccccc5[nH]4)cc3OC)nn2)cc1 [Compound 11j, (E)-2-(4-((4-((2-(1H-indole-2-carbonyl)hydrazono)methyl)-2-methoxyphenoxy)methyl)-1H-1,2,3-triazol-1-yl)-N-(4-methoxyphenyl)acetamide]	–	24.19 ± 0.1	–	–
COc1cc(/C=N/NC(=O)c2cc3ccccc3[nH]2)ccc1OCc1cn(CC(=O)Nc2ccc(Cl)cc2)nn1 [Compound 11k, (E)-2-(4-((4-((2-(1H-indole-2-carbonyl)hydrazono)methyl)-2-methoxyphenoxy)methyl)-1H-1,2,3-triazol-1-yl)-N-(4-chlorophenyl)acetamide]	184 to 186	31.56 ± 0.12	–	–
COc1cc(/C=N/NC(=O)c2cc3ccccc3[nH]2)ccc1OCc1cn(CC(=O)Nc2cccc(Cl)c2Cl)nn1 [Compound 11l, (E)-2-(4-((4-((2-(1H-indole-2-carbonyl)hydrazono)methyl)-2-methoxyphenoxy)methyl)-1H-1,2,3-triazol-1-yl)-N-(2,3-dichlorophenyl)acetamide]	–	–	18.2 ± 0.81	–
COc1cc(/C=N/NC(=O)c2cc3ccccc3[nH]2)ccc1OCc1cn(CC(=O)Nc2cc(Cl)cc(Cl)c2)nn1 [Compound 11m, (E)-2-(4-((4-((2-(1H-indole-2-carbonyl)hydrazono)methyl)-2-methoxyphenoxy)methyl)-1H-1,2,3-triazol-1-yl)-N-(3,5-dichlorophenyl)acetamide]	247 to 249	–	14.2 ± 0.21	–
COc1cc(/C=N/NC(=O)c2cc3ccccc3[nH]2)ccc1OCc1cn(CC(=O)Nc2ccc(Br)cc2)nn1 [Compound 11n, (E)-2-(4-((4-((2-(1H-indole-2-carbonyl)hydrazono)methyl)-2-methoxyphenoxy)methyl)-1H-1,2,3-triazol-1-yl)-N-(4-bromophenyl)acetamide]	–	8.3 ± 0.16	–	mechanism of α-glucosidase inhibition (yeast α-glucosidase [2]): uncompetitive inhibitors; Ki (yeast α-glucosidase [2]): 8.3 µM; cytotoxicity on normal cell line [3]: non-cytotoxic
COc1cc(/C=N/NC(=O)c2cc3ccccc3[nH]2)ccc1OCc1cn(CC(=O)Nc2cccc([N+](=O)[O-])c2Cl)nn1 [Compound 11o, (E)-2-(4-((4-((2-(1H-indole-2-carbonyl)hydrazono)methyl)-2-methoxyphenoxy)methyl)-1H-1,2,3-triazol-1-yl)-N-(2-chloro-3-nitrophenyl)acetamide]	> 250	–	12.67 ± 0.05	–
